Legend:
[1] = system: VERPE; experiment: Post-emergence action against VERPE; assay type: in vivo, Veronica persica; settings: dosage 80 g/ha; for pest or weed control at 80 g/ha: Veronica persica, 504 h
Description: (§1) Seeds of monocotyledonous and dicotyledonous weed and crop plants are laid out in sandy loam soil in wood-fiber pots, covered with soil and cultivated in a greenhouse under good growth conditions. 2 to 3 weeks after sowing, the test plants are treated at the one-leaf stage. The compounds of the invention, formulated in the form of wettable powders (WP) or as emulsion concentrates (EC), are then sprayed onto the green parts of the plants in the form of an aqueous suspension or emulsion at a water application rate equating to […], with addition of 0.2% wetting agent. After the test plants have been left to stand in the greenhouse under optimal growth conditions for about 3 weeks, the action of the preparations is assessed visually in comparison to untreated controls (herbicidal action in percent (%): 100% activity=the plants have died, 0% activity=like control plants). […] At the same time, inventive compounds leave Gramineae crops such as barley, wheat, rye, millet/Sorghum, corn or rice virtually undamaged when applied post-emergence, even at high active ingredient dosages. In addition, some substances are also harmless to dicotyledonous crops such as soya, cotton, oilseed rape, sugar beet or potatoes. Some of the compounds according to the invention have high selectivity and are therefore suitable for controlling unwanted vegetation in agricultural crops by the post-emergence method. The data of Tables B18 to B34 below illustrate, in an exemplary manner, the […] herbicidal action of the compounds according to the invention, the herbicidal activity being stated in percent.

[2] = system: AMARE; experiment: Post-emergence action against AMARE; assay type: in vivo, Amaranthus retroflexus; settings: post-emergence, dosage 80 g/ha, visual assessment about 3 weeks after treatment vs untreated controls; for pest or weed control at 80 g/ha: Amaranthus retroflexus, 504 h, read-out: Post-emergence action against AMARE (herbicidal action in percent)
Description: as §1

[3] = system: ABUTH; experiment: Post-emergence action against ABUTH; assay type: in vivo, Abutilon theophrasti; settings: post-emergence, dosage 80 g/ha, visual assessment about 3 weeks after treatment vs untreated controls
Description: as §1

[4] = system: VERPE; experiment: Pre-emergence action against VERPE; assay type: in vivo, Veronica persica; settings: Dosage 320 g/ha, pre-emergence; for pest or weed control at 320 g/ha: Veronica persica, 504 h
Description: (§2) Seeds of monocotyledonous and dicotyledonous weed plants and crop plants are laid out in sandy loam soil in wood-fiber pots and covered with soil. The compounds of the invention, formulated in the form of wettable powders (WP) or as emulsion concentrates (EC), are then applied to the surface of the covering soil in the form of an aqueous suspension or emulsion at a water application rate equating to […], with addition of 0.2% wetting agent. After the treatment, the pots are placed in a greenhouse and kept under good growth conditions for the trial plants. The damage to the test plants is scored visually after a test period of 3 weeks by comparison with untreated controls (herbicidal activity in percent (%): 100% activity=the plants have died, 0% activity=like control plants).

[5] = system: MATIN; experiment: Post-emergence action against MATIN; assay type: in vivo, Matricaria inodora; settings: post-emergence, dosage 80 g/ha, visual assessment about 3 weeks after treatment vs untreated controls
Description: as §1

[6] = system: ECHCG; experiment: Post-emergence action against ECHCG; assay type: in vivo, Echinochloa crus-galli; settings: post-emergence, dosage 80 g/ha, visual assessment about 3 weeks after treatment vs untreated controls
Description: as §1

[7] = system: MATIN; experiment: Pre-emergence action against MATIN; assay type: in vivo, Matricaria inodora; settings: Dosage 320 g/ha, pre-emergence; for pest or weed control at 320 g/ha: Tripleurospermum inodorum, 504 h
Description: as §2

[8] = system: AMARE; experiment: Pre-emergence action against AMARE; assay type: in vivo, Amaranthus retroflexus; settings: pre-emergence, dosage 320 g/ha, scored visually after 3 weeks vs untreated controls; for pest or weed control at 320 g/ha: Amaranthus retroflexus, 504 h, read-out: Pre-emergence action against AMARE (herbicidal activity)
Description: as §2

[9] = system: ECHCG; experiment: Pre-emergence action against ECHCG; assay type: in vivo, Echinochloa crus-galli; settings: pre-emergence, dosage 320 g/ha, scored visually after 3 weeks vs untreated controls
Description: as §2

[10] = system: STEME; experiment: Post-emergence action against STEME; assay type: in vivo, Stellaria media; settings: post-emergence, dosage 80 g/ha; for pest or weed control at 80 g/ha: Stellaria media, 504 h
Description: as §1

[11] = system: STEME; experiment: Pre-emergence action against STEME; assay type: in vivo, Stellaria media; settings: Dosage 320 g/ha, pre-emergence
Description: as §2

[12] = system: VIOTR; experiment: Post-emergence action against VIOTR; assay type: in vivo, Viola tricolor; settings: post-emergence, dosage 80 g/ha
Description: as §1

[13] = system: VIOTR; experiment: Pre-emergence action against VIOTR; assay type: in vivo, Viola tricolor; settings: Dosage 320 g/ha, pre-emergence
Description: as §2

[14] = system: PHBPU; experiment: Post-emergence action against PHBPU; assay type: in vivo, Pharbitis purpurea; settings: post-emergence, dosage 80 g/ha
Description: as §1

[15] = system: ABUTH; experiment: Pre-emergence action against ABUTH; assay type: in vivo, Abutilon theophrasti; settings: pre-emergence, dosage 320 g/ha, scored visually after 3 weeks vs untreated controls
Description: as §2

[16] = system: AVEFA; experiment: Pre-emergence action against AVEFA; assay type: in vivo, Avena fatua; settings: dosage 320 g/ha, scored visually after 3 weeks vs untreated controls
Description: as §2

[17] = system: ALOMY; experiment: Pre-emergence action against ALOMY; assay type: in vivo, Alopecurus myosuroides; settings: dosage 320 g/ha; pre-emergence; scored visually after 3 weeks vs untreated controls; 100% = plants have died, 0% = like control plants
Description: as §2

[18] = system: SETVI; experiment: Pre-emergence action against SETVI; assay type: in vivo, Setaria viridis; settings: pre-emergence, dosage 320 g/ha, scored visually after 3 weeks vs untreated controls
Description: as §2

CC(=O)c1c(C(F)(F)F)ccc(C(=O)Nc2nnnn2C)c1C [1-14]
pest or weed control at 80 g/ha [1]: 80% | pest or weed control at 80 g/ha [2]: 80% | pest or weed control at 80 g/ha ([3]; Abutilon theophrasti, 504 h, read-out: Post-emergence action against ABUTH (herbicidal action in percent)): 90% | pest or weed control at 320 g/ha [4]: 90%

CCC(=O)c1c(C)ccc(C(=O)Nc2nnnn2C)c1Cl [1-135]
pest or weed control at 80 g/ha ([5]; Tripleurospermum inodorum, 504 h, read-out: Post-emergence action against MATIN (herbicidal action in percent)): 90% | pest or weed control at 80 g/ha ([6]; Echinochloa crus-galli, 504 h, read-out: Post-emergence action against ECHCG (herbicidal action in percent)): 80% | pest or weed control at 320 g/ha [7]: 90% | pest or weed control at 320 g/ha [8]: 100% | pest or weed control at 80 g/ha [1]: 80% | pest or weed control at 320 g/ha ([9]; Echinochloa crus-galli, 504 h, read-out: Pre-emergence action against ECHCG (herbicidal activity)): 90% | pest or weed control at 80 g/ha [2]: 90% | pest or weed control at 80 g/ha [10]: 100% | pest or weed control at 320 g/ha ([11]; Stellaria media, 504 h): 90% | pest or weed control at 80 g/ha ([12]; Viola tricolor, 504 h): 90% | pest or weed control at 320 g/ha [4]: 90%

Cn1nnnc1NC(=O)c1ccc(Cl)c(C(=O)C2CCCC2)c1Cl [1-281]
Post-emergence action against MATIN (herbicidal action in percent) [5]: 80% | Pre-emergence action against MATIN [7]: 90% | Pre-emergence action against AMARE (herbicidal activity) [8]: 90% | Post-emergence action against VERPE [1]: 80 | Pre-emergence action against VIOTR [13]: 100% | Post-emergence action against PHBPU [14]: 90 | Post-emergence action against AMARE (herbicidal action in percent) [2]: 90% | Post-emergence action against STEME [10]: 100 | Pre-emergence action against STEME [11]: 80% | Post-emergence action against VIOTR [12]: 100 | Pre-emergence action against VERPE [4]: 100%

Cn1nnnc1NC(=O)c1ccc(Cl)c(C(=O)c2cccs2)c1Cl [1-282]
pest or weed control at 320 g/ha [7]: 80% | pest or weed control at 320 g/ha [8]: 80% | pest or weed control at 80 g/ha [2]: 80% | pest or weed control at 80 g/ha [10]: 80% | pest or weed control at 320 g/ha ([15]; Abutilon theophrasti, 504 h, read-out: Pre-emergence action against ABUTH (herbicidal activity)): 90%

COc1ccc(C(=O)c2c(Cl)ccc(C(=O)Nc3nnnn3C)c2Cl)cc1 [1-283]
Post-emergence action against STEME [10]: 80 | Pre-emergence action against ABUTH (herbicidal activity) [15]: 90%

CCn1nnnc1NC(=O)c1ccc(C(F)(F)F)c(C(=O)C2CCCC2)c1Cl [2-154]
Post-emergence action against PHBPU [14]: 90 | Post-emergence action against AMARE (herbicidal action in percent) [2]: 100% | Post-emergence action against STEME [10]: 90 | Post-emergence action against ABUTH (herbicidal action in percent) [3]: 90%

CCn1nnnc1NC(=O)c1ccc(C(F)(F)F)c(C(=O)C(F)(F)F)c1Cl [2-162]
Pre-emergence action against AMARE (herbicidal activity) [8]: 90% | Pre-emergence action against VIOTR [13]: 100% | Post-emergence action against PHBPU [14]: 100 | Post-emergence action against AMARE (herbicidal action in percent) [2]: 90% | Post-emergence action against STEME [10]: 100 | Pre-emergence action against STEME [11]: 100% | Post-emergence action against VIOTR [12]: 100 | Pre-emergence action against ABUTH (herbicidal activity) [15]: 100%

CCn1nnnc1NC(=O)c1ccc(Cl)c(C(=O)C2CCCC2)c1Cl [2-281]
Post-emergence action against MATIN (herbicidal action in percent) [5]: 80% | Pre-emergence action against MATIN [7]: 90% | Pre-emergence action against AMARE (herbicidal activity) [8]: 90% | Post-emergence action against VERPE [1]: 80 | Pre-emergence action against VIOTR [13]: 100% | Post-emergence action against PHBPU [14]: 100 | Post-emergence action against AMARE (herbicidal action in percent) [2]: 90% | Post-emergence action against STEME [10]: 100 | Pre-emergence action against STEME [11]: 90% | Post-emergence action against VIOTR [12]: 90 | Pre-emergence action against VERPE [4]: 90%

CCn1nnnc1NC(=O)c1ccc(Cl)c(C(=O)c2cccs2)c1Cl [2-282]
Pre-emergence action against AMARE (herbicidal activity) [8]: 80% | Pre-emergence action against STEME [11]: 80% | Pre-emergence action against ABUTH (herbicidal activity) [15]: 100%

CCn1nnnc1NC(=O)c1ccc(Cl)c(C(=O)c2ccc(OC)cc2)c1Cl [2-283]
Pre-emergence action against STEME [11]: 90% | Post-emergence action against ABUTH (herbicidal action in percent) [3]: 80%

CCn1nnnc1NC(=O)c1ccc(C(F)(F)F)c(C(=O)C2CCCCC2)c1SC [2-285]
Post-emergence action against MATIN (herbicidal action in percent) [5]: 80% | Pre-emergence action against MATIN [7]: 90% | Pre-emergence action against AMARE (herbicidal activity) [8]: 100% | Pre-emergence action against VIOTR [13]: 100% | Pre-emergence action against AVEFA (herbicidal activity) [16]: 80% | Pre-emergence action against ECHCG (herbicidal activity) [9]: 80% | Post-emergence action against AMARE (herbicidal action in percent) [2]: 90% | Post-emergence action against STEME [10]: 80 | Pre-emergence action against STEME [11]: 100% | Pre-emergence action against ABUTH (herbicidal activity) [15]: 100% | Post-emergence action against ABUTH (herbicidal action in percent) [3]: 90% | Pre-emergence action against VERPE [4]: 90%

CCCn1nnnc1NC(=O)c1ccc(C)c(C(=O)CC)c1Cl [3-135]
Post-emergence action against MATIN (herbicidal action in percent) [5]: 80% | Post-emergence action against ECHCG (herbicidal action in percent) [6]: 80% | Pre-emergence action against MATIN [7]: 90% | Pre-emergence action against AMARE (herbicidal activity) [8]: 90% | Pre-emergence action against ALOMY (herbicidal activity in percent) [17]: 80% | Post-emergence action against PHBPU [14]: 90 | Pre-emergence action against ECHCG (herbicidal activity) [9]: 90% | Post-emergence action against AMARE (herbicidal action in percent) [2]: 90% | Post-emergence action against STEME [10]: 100 | Pre-emergence action against STEME [11]: 90% | Pre-emergence action against VERPE [4]: 80%

CCCn1nnnc1NC(=O)c1ccc(C(F)(F)F)c(C(=O)C(C)C)c1Cl [3-140]
Post-emergence action against MATIN (herbicidal action in percent) [5]: 90% | Post-emergence action against ECHCG (herbicidal action in percent) [6]: 100% | Pre-emergence action against MATIN [7]: 100% | Pre-emergence action against AMARE (herbicidal activity) [8]: 100% | Pre-emergence action against VIOTR [13]: 100% | Pre-emergence action against ALOMY (herbicidal activity in percent) [17]: 90% | Post-emergence action against PHBPU [14]: 90 | Pre-emergence action against ECHCG (herbicidal activity) [9]: 90% | SETVI (Table B8, pre-emergence herbicidal activity) [18]: 90% | Post-emergence action against AMARE (herbicidal action in percent) [2]: 80% | Post-emergence action against STEME [10]: 90 | Pre-emergence action against STEME [11]: 100% | Post-emergence action against VIOTR [12]: 100 | Pre-emergence action against ABUTH (herbicidal activity) [15]: 100% | Post-emergence action against ABUTH (herbicidal action in percent) [3]: 100% | Pre-emergence action against VERPE [4]: 100%

CCCn1nnnc1NC(=O)c1ccc(C(F)(F)F)c(C(=O)C2CCCCC2)c1Cl [3-155]
Pre-emergence action against AMARE (herbicidal activity) [8]: 90% | Post-emergence action against AMARE (herbicidal action in percent) [2]: 90% | Post-emergence action against STEME [10]: 80 | Pre-emergence action against STEME [11]: 100% | Pre-emergence action against ABUTH (herbicidal activity) [15]: 100% | Post-emergence action against ABUTH (herbicidal action in percent) [3]: 80%

CCCn1nnnc1NC(=O)c1ccc(C(F)(F)F)c(C(=O)c2cc(F)cc(F)c2)c1Cl [3-282]
Pre-emergence action against VIOTR [13]: 90% | Post-emergence action against PHBPU [14]: 90 | Post-emergence action against AMARE (herbicidal action in percent) [2]: 80% | Post-emergence action against ABUTH (herbicidal action in percent) [3]: 80%
